Data on one compound can be found in patent publication US6803195B1, “Facile detection of cancer and cancer risk based on level of coordination between alleles” (Ramot At Tel-Aviv University Ltd., priority 1999, dated 2004).

What all share (format): cell-based, human
The subject of assay [1] is lymphocytes of prostate cancer patients (CAP) and control subjects (BPH). Description: FISH determination of allelic loss in CAP and BPH lymphocytes with and without 5-azacytidine (Example 7). Particulars: CAP samples 1-6 and BPH samples 1-6, presence vs absence of AZA. How it is done: (§1) Each sample was set up for short-term culturing in F10 medium supplemented with 20% fetal calf serum (FCS), 3% phytohemagglutinin (PHA), 0.2% heparin, and 1% antibiotics (a standard solution of penicillin and streptomycin). Cultures were incubated at 37° C. for 72 hours and then colchicine (final concentration 0.1 μg/ml) was added to the culture for one hour, followed by hypotonic treatment (0.075 M KC1 at 37° C. for 15 minutes) and four washes each with a fresh cold 3:1 methanol: acetic acid solution. The cell suspensions were stored at −20° C. until used for fluorescence in situ hybridization (FISH). […]
Slides were analyzed blindly on an Olympus BH2 fluorescent microscope, using a triple band-pass filter (Chroma technology). […] For each sample and for each treatment the frequency of SD, SS and DD cells out of the total population of cells containing two fluorescent signals was recorded (for details please see Dotan et al, Genes, Chromosomes & Cancer 27:270-277, 2000). For the determination of allelic losses at least 200 cells from the same preparation used for replication studied were analyzed for each tested sample. […]

The test system of assay [2] is CON samples (healthy individuals). Description: FISH replication assay, cultures of healthy individuals (CON) with chromatin modifiers (Example 10). Particulars: for frequency (%) of SD cells, Mean: CON + AZA (10^-7M), N = 20. The source says:
Cultures were set up from 44 healthy individuals (hereafter called CON) and 20 hematological malignancy patients at diagnosis (hereafter termed CAD). For 20 of the CON samples and all of the CAD samples peripheral in addition to the setting up cultures in the regular growth medium, cultures were set up in medium containing 5-azacytidine (10^−7M; Sigma, USA; hereafter referred to as AZA) a demethylating agent. In addition, cultures from 6 CON and 10 CAD samples were set up in medium containing a deacetylating agents, either Trichostatin A (33 nM; Sigma, USA; hereafter referred to as TSA) or Sodium Butirate (1 nM; Sigma, USA; hereafter referred to as NB), two well described acetylating agents.
These samples were hybridized with two commercial probes: the AML1 probe (LSI 21, […]) and the α-satellite probe specific for centromere 17 (32-130017, hereafter marked as CEN17). The results are summarized in Table 1 giving the number of samples hybridized with each probe (N), Mean and standard deviation (stdev) as well as the p value obtained using two tailed student's t-test (Microsoft Office 98).

The test system of assay [3] is lymphocytes of control subjects (BPH). As to the kind of experiment: FISH replication assay, lymphocytes of benign prostate hyperplasia (BPH) subjects grown with 5-azacytidine (Example 7). Particulars: BPH samples; all tested loci; 10^-7M AZA. How it is done:
as §1
Slides were analyzed blindly on an Olympus BH2 fluorescent microscope, using a triple band-pass filter (Chroma technology). […] For each sample and for each treatment the frequency of SD, SS and DD cells out of the total population of cells containing two fluorescent signals was recorded (for details please see Dotan et al, Genes, Chromosomes & Cancer 27:270-277, 2000). For the determination of allelic losses at least 200 cells from the same preparation used for replication studied were analyzed for each tested sample.

As to `Nc1ncn([C@@H]2O[C@H](CO)[C@@H](O)[C@H]2O)c(=O)n1` [AZA, 5-azacytidine], the “frequency of cells showing a loss of one copy of AML1, TP53, CMYC, RB1, D15Z1 and SNRPN” value in assay [1] is on record as “Neither the CAP samples nor the BPH samples were affected”. The “frequency (%) of SD cells, Mean” value is on record as “Mean = 21.5%” in assay [2] (AML1 locus) and “Mean = 20.9%” in assay [2] (CEN17 locus). In assay [2] (cultured cells with chromatin modifier), the “replication pattern observed in normal genomes” value is recorded as “not affecting”. For the same compound, in assay [3], the “effect of AZA on the SD values” was “no significant effect”.
